Test results published in patent publication US7445931B2, “Compositions and methods for enrichment of neural stem cells using ceramide analogs” (Bresagen, Inc., priority 2002, dated 2008).

Legend:
[1] = test system: differentiating ES-J1 cells; assay: Apoptosis (TUNEL staining, cell death) in differentiating mouse ES cells incubated with ceramide analogs; format: cell-based; settings: for number of TUNEL stained cells: 15 hours with 75 μM S16 or S18, or 35 μM C2-ceramide
Description: In vitro neural differentiation of mouse ES cells (ES-J1, ES-D3) followed a serum deprivation protocol as described previously (Hancock, et al., 2000 Biochem. Biophys. Res. Commun., 271: 418-421). The differentiation stages are outlined in FIG. 2. Briefly, ES cells were grown on gamma-irradiated feeder fibroblasts for four days in Knockout DMEM/15% Knockout serum replacement, supplemented with ESGRO (LIF; Chemicon; Cat No. ESG1106) at a concentration of 10^3 units/ml medium. ES cells were then grown for another four days on gelatin-coated bacterial culture dishes without a fibroblast feeder layer, and were then grown for three days in Knockout DMEM/15% heat-inactivated ES qualified Fetal Bovine Serum, supplemented with 10^3 units LIF per ml of medium. Upon trypsinization, ES cells were transferred to bacterial culture dishes without gelatin, and embryoid body (EB) formation was induced for four days in Knockout DMEM/10% heat-inactivated ES qualified FBS without LIF (EB4 stage). On the fifth day, floating and loosely attached EBs were rinsed off and transferred to tissue culture dishes. The EBs were allowed to attach to the tissue culture dish surface by incubation for another 24 hours in Knockout DMEM with 10% heat-inactivated ES qualified fetal bovine serum. Neural differentiation due to serum deprivation was induced by cultivation of the EBs for three days in DME/12 (50/50), supplemented with 1×N2 (Invitrogen/Life Technologies; Cat No. 17502, dilution of 1:100) but without serum (EB8 stage). Serum-deprived EBs were then trypsinized, plated on poly-L-ornithine/laminin-coated tissue culture dishes and grown for four days in DMEM/F12 (50/50), supplemented with N2 and 10 ng/ml FGF-2, but without serum. This incubation period is referred to as neuroprogenitor (NP) stage due to commitment of neuroepithelial precursor cells to neuroprogenitor cells, and/or due to the selective expansion of neural progenitor cells in the FGF-2 containing serum-free medium. These cells have committed during the EB stages and were expanded during the NP stage. NPs grown for 48 hours upon replating of trypsinized EBs were referred to as the NP2 stage. On the fifth day of NP formation, the medium was changed to Neurobasal (Invitrogen/Life Technologies; Cat No. 21103-049), with 5% heat-inactivated FBS, and the cells were incubated for another seven days. During this time, NPs fully differentiate to glial cells and neurons. Cells cultured for 24 hours or 96 hours upon changing the medium were referred to as the D1 or D4 stage, respectively.
ES cells were cultured and differentiated to the EB4, EB8, NP2, or D4 stage following the protocol as described above. The ceramide analog S18 was dissolved in ethanol at a concentration of 100 mM and then added to the cells at a final concentration of 75 μM in medium. The cells at the EB8 stage were incubated for 48 hours in the presence of the ceramide analog and were then transplanted into mouse brains.
Differentiating ES cells were grown on cover slips and fixed with 4% paraformaldehyde in phosphate-buffered saline (PBS). Fixed cells were permeabilized with 0.5% Triton X-100 in PBS for 5 minutes at room temperature and unspecific binding sites were saturated by incubation with 3% ovalbumin in PBS for 1 hour at 37° C. The cover slips were then incubated with 5 μg/ml primary antibody (anti-ceramide clone 15B4 mouse IgM, Alexis; anti-PAR-4 rabbit IgG, Santa Cruz; anti-PCNA rabbit IgG, Santa Cruz; anti-nestin clone 401 rat IgG, BD Pharmingen) in 0.1% ovalbumin/PBS, followed by incubation with the appropriate fluorescence-labeled secondary antibody (5 μg/ml Alexa 546 conjugated anti-mouse IgG, Molecular Probes; Alexa 488 conjugated anti-rabbit IgG, Molecular Probes, Cy3 conjugated anti-mouse IgM, Jackson) for 2 hours at 37° C. The nuclei were stained by treatment with 2 μg/ml Hoechst 33258 in PBS for 30 minutes at room temperature. […]

differentiating ES cells = assay: Apoptosis (TUNEL) in ceramide-depleted differentiating ES cells and its restoration by ceramide or analogs; format: cell-based, mouse
Description: Fumonisin B1 (FB1) or myriocin-treated (ceramide-depleted) differentiating ES cells were incubated with natural ceramide. To prepare the natural ceramide, 50 mg of EBs or NPs were resuspended in 500 μl of water, and after phase separation with 500 μl of CHCl3/CH3OH (1:1 by vol.) the neutral lipids were recovered from the lower phase. The neutral lipids were evaporated to dryness with a gentle stream of nitrogen and redissolved in 1 ml of CHCl3. The solution was applied to a silicic acid gel column (0.5 g) and fatty acids and cholesterol washed out with another 15 ml of CHCl3 (Dasgupta and Hogan, 2001 J. Lipid Res., 42:301-308). The ceramide fraction was then eluted with 20 ml of CHCl3/acetone (9:1, by vol.), evaporated to dryness, and the residue (approximately 6 nmoles of ceramide) dissolved in 20 μl of ethanol containing 2% dodecane (vol./vol.). Aliquots of 5 μl were mixed with 1 ml of medium, yielding a final concentration of 1.5 μM natural ceramide for induction of apoptosis (Ji et al., 1995 FEBS Lett., 358:211-214).
Differentiating ES cells at the EB8 cells were dissociated and grown for 24 hours on laminin/ornithin-coated cover slips (NP1 stage) in DMEM/F12 (50/50), supplemented with 1×N2 and 20 ng/ml FGF-2. Cells were incubated for 3 hours with 10 μM bromodeoxyuridine (BrdU) and the TUNEL assay or immunostainings performed after 5 hours of incubation. For immunostaining, cells were fixed with 4% paraformaldehyde in phosphate-buffered saline (PBS). Fixed cells were permeabilized with 0.2% Triton X-100 in PBS for 5 minutes at room temperature and immunostaining performed as described previously (Bieberich et al., 2001 J. Biol. Chem., 276:44396-44404). The nuclei were stained by treatment with 2 μg/ml Hoechst 33258 in PBS for 30 minutes at room temperature. Apoptotic nuclei were stained using the fluorescein FragEL TUNEL assay according to instructions of the manufacturer (Oncogene).
The degree of apoptosis in differentiating ES cultures was determined since it was previously proposed that ceramide elevation induces apoptosis in NPs (Bieberch et al., 2001 J. Biol. Chem., 276:44396-44404). […] Apoptosis was elevated at the EB8 stage ([…]), and was highest at the NP2 stage (35+/−5%). […] Apoptosis was restored by the addition of 30 μM N-acetyl sphingosine (C2-ceramide), 80 μM of the novel ceramide analog N-oleoyl serinol (S18), or 1 μM of natural ceramide that was extracted from differentiating ES cells.

[2] = FB1-treated cells at the NP2 stage

With `CCCCCCCC/C=C\CCCCCCCC(=O)NC(CO)CO` [S18, N-(2-hydroxy-1-(hydroxymethyl)ethyl)-oleoylamide] the cell death ([1]; EB8 and NP2 stages, 20 hours with 75 μM S18) was “high degree of cell death”, the “number of TUNEL stained cells” value ([1]; EB8 stage) was 45±10% and the “number of TUNEL stained cells” value ([1]; NP2 stage) was 70±10%. The “effect on differentiated neurons (cell death)” value ([1]; differentiated neurons, 20 hours with 75 μM S18) was “unaffected”, the “dependence of apoptosis on PAR-4 expression” value (differentiating ES cells; [2]) was “only seen in cells that expressed PAR-4” and the “number of PAR-4 positive cells” value (differentiating ES cells; [2]) was “did not alter the number of PAR-4 positive cells”. For the same molecule, the “restoration of apoptosis in FB1-treated cells” value (differentiating ES cells; NP2 stage, 30 μM C2-ceramide, 80 μM S18, or 1 μM natural ceramide) was “restored” and the “concentration of endogenous ceramide” value (differentiating ES cells; S18 incubation of FB1-treated cells at the NP2 stage) was “did not alter the concentration of endogenous ceramide”.
